This passage reports IC50 results from patent publication US20250127908A1, “HETEROBIFUNCTIONAL CONDITIONAL INHIBITORS” (Kolm Therapeutics Inc., priority 2023, published 2025).

For one test, the system named is VCaP cells. The test is described as follows: VCaP growth inhibition assay (CTG). As to conditions: Homo sapiens, 216 h, 30 pM R1881, 9-day treatment, CTG luminescence. The class given is cell-based. The method, then: Example B-2: VCaP Growth Inhibition Assay
VCaP cells (ATCC Cat #CRL-2876) are plated at 1×10^4 cells per well of a white plastic 96-well cluster plate (Thermo Scientific Nunc Cat #165306) in 100 uL phenol red-free DMLEM (Gibco Cat #21063-029) media with […] (Omega Scientific Cat #FB-04). Cluster plates are returned to the incubator (37*C/5% CO2) for 72 hours prior to treatment. Just prior to treatment, 100 uL of phenol red-free DMEM/5% CSS and 60 pM Ri881 (Sigma Cat #R0908-10 mg) was added to each well of the cluster plates (Final R1881 concentration=30 pM). Compounds (200×) were added to each well in a volume of 1 uL, with serial dilutions (1:5) from 20 uM to 2 pM (final concentrations in well are 100 nM to 10 fMV). Cluster plates are returned to the incubator for 9 days.
After the 9-day treatment period, media was removed from the cluster plates by inversion and 100 uL room temperature CTG reagent (Promega Cat #G7573) is added to each well. The cluster plates are placed on a shaker and incubated at room temperature for 20 minutes. Following this shaking/incubation, cluster plates are read on a luminometer (BMG ClarioStar). IC50 values are obtained by graphing the RLU data vs. compound concentration with nonlinear regression 4-parameter logistic curves (GraphPad Prism).

In the next test the test system is HEK-293 cells. In words: HEK-293 growth inhibition assay (CTG). The class given is cell-based. The settings on record: Homo sapiens, HEK293, 72 h, 3-day treatment, CTG luminescence. The method, then:
Example B-4: HEK-293 Growth Inhibition Assay
HEK-293 cells (ATCC Cat #CRL-1573) are plated at 3×10^3 cells per well of a white plastic 96-well cluster plate (Thermo Scientific Nunc Cat #165306) in 200 uL DMLEM (ATCC Cat #30-2002) media with 10% FBS (Gibco Cat #26140-079). Cluster plates are returned to the incubator (37*C/5% CO2) for 24 hours prior to treatment. Compounds (200×) were added to each well in a volume of 1 uL, with serial dilutions (1:5) from 2 mM to 200 pM (final concentrations in well are 10 uM to 1 pM). Cluster plates are returned to the incubator for 3 days.
After the 3-day treatment period, 100 uL media was removed from each well by aspiration and 100 uL room temperature CTG reagent (Promega Cat #G7573) is added back to each well. The cluster plates are placed on a shaker and incubated at room temperature for 20 minutes. Following this shaking/incubation, cluster plates are read on a luminometer (BMG ClarioStar). ICs50 values are obtained by graphing the RLU data vs. compound concentration with nonlinear regression 4-parameter logistic curves (GraphPad Prism).

The IC50 is the concentration that inhibits the measured activity by half. Low values mean greater potency in that assay, high ones weaker potency in that assay. As to `CNC(=O)N1CCc2c(c(N3CCCc4cc(-c5cnn(C)c5)c(C(F)F)cc43)nn2C2CCN(C(=O)COCCOCC3CCN(CC4CCN(c5ccc([C@H]6c7ccc(O)cc7CC[C@H]6c6ccccc6)cc5)CC4)CC3)CC2)C1` [Compound 10, 3-[7-(difluoromethyl)-6-(1-methylpyrazol-4-yl)-3,4-dihydro-2H-quinolin-1-yl]-1-[1-[2-[2-[[1-[[1-[4-(6-hydroxy-2-phenyl-tetralin-1-yl)phenyl]-4-piperidyl]methyl]-4-piperidyl]methoxy]ethoxy]acetyl]-4-piperidyl]-N-methyl-6,7-dihydro-4H-pyrazolo[4,3-c]pyridine-5-carboxamide], the half-maximal inhibitory concentration (IC50) in the test on VCaP cells was 1 to 100 nM; in the test on HEK-293 cells, over 1000 nM.
